Drawing on ChEMBL document CHEMBL1159253, “Two new cytotoxic monotetrahydrofuran Annonaceous acetogenins, annomuricins A and B, from the leaves of Annona muricata” (J Nat Prod, 1995), this text covers LC50, EC50 and ED50 for 5 compounds.

Converted amounts (≈) assume the structure as drawn.

Series [1] can be described thus: Toxicity against brine shrimp. The class given is organism-based. The settings on record: artemia, in vivo.
The test system of another series is HT-29. As to the kind of experiment: Cytotoxicity against human HT-29 cells after 7 days by MTT assay. It counts as functional. The settings on record: HT-29, 168 h, read-out: ED50 (the source's name). (Tetrazolium dyes change colour on reduction, which living cells bring about.)
The test system of the next series is A549. The series is described as follows: Cytotoxicity against human A549 cells after 7 days by MTT assay. The class given is functional. To be noted: for EC50: Homo sapiens, A549, 168 h, read-out: ED50 (the source's name).
Another series concerns MCF7. The series is described as follows: Cytotoxicity against human MCF7 cells after 7 days by MTT assay. It counts as functional. To be noted: for EC50: Homo sapiens, MCF7, 168 h, read-out: ED50 (the source's name).

One may read the LC50 as the concentration lethal to half of the exposed cells or organisms. Regarding `CCCCCCCCCCCC[C@H](O)[C@H]1CC[C@H]([C@H](O)CCC[C@H]2OC(C)(C)O[C@@H]2CCCCC[C@@H](O)CC2=C[C@H](C)OC2=O)O1`, in series [1], the LC50 was 0.131 µg/mL (≈ 0.201 µM). Also, the EC50 in the series with HT-29 was > 1 µg/mL. For the same compound, the values for the ED50 with A549 and with MCF7 were 1.58 ×10⁻⁴ ug/ml and 2.78 ×10⁻⁴ ug/ml, respectively.
On to `CCCCCCCCCCCC[C@H](O)[C@H]1CC[C@H]([C@H](O)CCC[C@@H]2OC(C)(C)O[C@@H]2CCCCC[C@@H](O)CC2=C[C@H](C)OC2=O)O1`, for which the LC50 in series [1] was determined as 0.18 µg/mL (≈ 0.276 µM). In addition, the EC50 in the series on HT-29 amounted to 0.0933 µg/mL (≈ 0.143 µM). Also, the ED50 in the series with A549 is given as 3.41 ×10⁻⁴ ug/ml; in the series on MCF7, 1.41 ×10⁻⁴ ug/ml.
`CCCCCCCCCCCC[C@H](O)[C@H]1CC[C@H]([C@H](O)CCC[C@@H](O)[C@H](O)CCCCC[C@@H](O)CC2=C[C@H](C)OC2=O)O1` [ANNOMURICIN A]: in series [1], the LC50 was 0.625 µg/mL (≈ 1.02 µM). Also, the EC50 was > 1 µg/mL in the series on HT-29, 0.33 µg/mL (≈ 0.538 µM) with A549 and > 1 µg/mL with MCF7.
Take `CCCCCCCCCCCC[C@H](O)[C@H]1CC[C@H]([C@H](O)CCC[C@H](O)[C@H](O)CCCCC[C@@H](O)CC2=C[C@H](C)OC2=O)O1` [ANNOMURICIN B]: in series [1], the LC50 was found to be 0.687 µg/mL (≈ 1.12 µM). The EC50 with HT-29 was 0.435 µg/mL (≈ 0.71 µM); in the series on A549, 0.159 µg/mL (≈ 0.259 µM); with MCF7, > 1 µg/mL.
`COc1cccc2c1C(=O)c1c(O)c3c(c(O)c1C2=O)C[C@@](O)(C(=O)CO)C[C@@H]3O[C@H]1C[C@H](N)[C@H](O)[C@H](C)O1` [DOXORUBICIN]: the EC50 stood at 0.0275 µg/mL (≈ 0.0506 µM) in the series with HT-29, 0.0101 µg/mL (≈ 0.0186 µM) with A549 and 0.126 µg/mL (≈ 0.232 µM) in the series on MCF7.
